Here are results for 9 molecules from US20250296929A1, “NOVEL HEPATOSELECTIVE POLYADENYLATING POLYMERASES INHIBITORS AND THEIR METHOD OF USE” (BARUCH S. BLUMBERG INSTITUTE, priority 2021, published 2025).

The conditions of series [1]: in words; cited from earlier work.
In series [2] the test system is HBV. The settings on record: oral treatment, HBV infected uPA-SCID mice harboring human hepatocytes; cited from earlier work.
Series [3] concerns woodchuck hepatitis virus (WHV). The settings on record: oral administration, woodchucks chronically infected with WHV; cited from earlier work.
Series [4] concerns the target T1, OATP1B1 (Homo sapiens, UniProt Q9Y6L6).
T1 construct: expressed in transfected cells; host or cells: HEK293
T1 sequence (Q9Y6L6 1-691): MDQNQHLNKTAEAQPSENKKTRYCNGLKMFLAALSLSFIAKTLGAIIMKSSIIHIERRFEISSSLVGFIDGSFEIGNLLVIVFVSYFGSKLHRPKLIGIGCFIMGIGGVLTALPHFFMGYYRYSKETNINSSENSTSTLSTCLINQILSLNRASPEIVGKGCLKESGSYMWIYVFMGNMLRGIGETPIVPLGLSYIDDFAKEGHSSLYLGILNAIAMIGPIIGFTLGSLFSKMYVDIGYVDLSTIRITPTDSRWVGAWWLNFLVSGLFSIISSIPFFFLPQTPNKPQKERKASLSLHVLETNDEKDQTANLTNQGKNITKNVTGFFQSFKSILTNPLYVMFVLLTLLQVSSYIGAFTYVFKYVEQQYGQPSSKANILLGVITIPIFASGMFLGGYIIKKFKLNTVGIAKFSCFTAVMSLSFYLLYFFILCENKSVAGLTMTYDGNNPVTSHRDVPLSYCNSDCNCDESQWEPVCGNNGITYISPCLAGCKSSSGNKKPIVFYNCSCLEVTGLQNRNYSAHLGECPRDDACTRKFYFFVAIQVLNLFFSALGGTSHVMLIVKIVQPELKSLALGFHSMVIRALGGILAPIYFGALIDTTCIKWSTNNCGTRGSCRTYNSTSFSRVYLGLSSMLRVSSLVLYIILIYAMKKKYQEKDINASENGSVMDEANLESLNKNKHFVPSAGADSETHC
Nature of the series: OATP1B1 transporter substrate uptake in OATP1B1-HEK293 cells. It counts as in vitro ADME. The note with it: for Uptake Ratio (−/+Inhibitor): OATP1B1-HEK293 cells, inhibitor Rifamycin SV; for Uptake Ratio (Transporter(−Inhibitor)/Mock(−Inhibitor)): OATP1B1-HEK293 vs Mock (normal HEK293).

In series [5] the target is T2, OATP1B3 (Homo sapiens, UniProt Q9NPD5).
T2 construct: expressed in transfected cells; host or cells: HEK293
T2 sequence (Q9NPD5 1-702): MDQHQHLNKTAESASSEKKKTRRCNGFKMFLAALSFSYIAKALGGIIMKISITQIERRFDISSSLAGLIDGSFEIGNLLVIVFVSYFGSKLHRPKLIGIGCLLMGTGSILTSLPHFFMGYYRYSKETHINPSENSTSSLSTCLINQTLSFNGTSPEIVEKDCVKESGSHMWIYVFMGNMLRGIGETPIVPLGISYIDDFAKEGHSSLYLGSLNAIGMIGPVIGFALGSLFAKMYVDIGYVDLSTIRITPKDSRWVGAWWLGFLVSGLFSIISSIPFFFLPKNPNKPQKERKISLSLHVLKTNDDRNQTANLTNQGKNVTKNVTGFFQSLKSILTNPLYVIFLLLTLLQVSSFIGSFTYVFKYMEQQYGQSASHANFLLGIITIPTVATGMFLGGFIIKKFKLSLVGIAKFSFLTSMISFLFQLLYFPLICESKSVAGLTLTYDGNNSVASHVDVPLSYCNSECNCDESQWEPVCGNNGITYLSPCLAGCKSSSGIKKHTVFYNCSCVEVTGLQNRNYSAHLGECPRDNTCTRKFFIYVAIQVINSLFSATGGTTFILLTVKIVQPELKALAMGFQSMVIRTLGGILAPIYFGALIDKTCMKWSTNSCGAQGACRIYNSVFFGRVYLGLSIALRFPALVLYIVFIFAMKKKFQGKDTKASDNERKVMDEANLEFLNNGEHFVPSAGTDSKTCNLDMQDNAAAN
Nature of the series: OATP1B3 transporter substrate uptake in OATP1B3-HEK293 cells. It counts as in vitro ADME. The settings on record: for Uptake Ratio (−/+Inhibitor): OATP1B3-HEK293 cells, inhibitor Rifamycin SV; for Uptake Ratio (Transporter(−Inhibitor)/Mock(−Inhibitor)): OATP1B3-HEK293 vs Mock. Here is the method: Protocol for identification of compounds that are substrates of transporters OATP1B1 and OATP1B3. Transfected HTEK293 and vector control HTEK293 cells were cultured in 24-well poly-D-lysine or collagen-coated tissue culture plates ([…]) for 2 and 10 minutes respectively in transport buffer (HIBSSg, pH 7.4, pre-warmed to 37° C.). At a defined time point, the uptake experiments were stopped by removing dosing solution followed by two washes of ice-cold HIBSSg buffer. The cells were lysed for 2 minutes with […] containing an appropriate internal standard (when available). Lysis buffer were chilled to −20° C., and the plate was kept on ice during lysis. The cell lysate was transferred into a 96-well plate for sample analysis with LC-MS/MS analysis to determine concentration of test compound in cell lysate. The uptake of test compounds was normalized by total cell protein using the BCA Protein Assay Kit following the manufacturer's protocol. The inhibitor Rifamycin SV was used to block OATP1B1 and OATP1B3 transporter activity in order to determine uptake ratios.

Series [6] has as its system HBsAg secretion, HBV producing cell line HepG2.2.15. Nature of the series: Cellular assay: HBsAg inhibition in HBV producing cell line HepG2.2.15. The format is cell-based. The note with it: Hepatitis B virus. Here is the method:
(§1) Cellular assays method 1: Cellular assays: The HBV producing cell line HepG2.2.15 was cultured in DMEM/F12 containing 10% fetal bovine serum (FBS), 100 U/ml penicillin and 100 μg/ml streptomycin (Invitrogen). Compounds of the disclosure in DMSO was added into the culture medium when cell reached 100% confluence. The final concentration of DMSO was adjusted to 0.5%. Culture medium was replaced in two days and the cell was cultured for additional two days in the presence of compound. HBsAg inhibition in culture medium was then detected with AlphaLisa assay using anti-HBsAg antibodies of 10-H05H and 60C-CR2100RB from Fitzgerald Internantional. To examine the change of nucleic acid, total RNA was extracted with Trizol reagents and resolved in glyoxal agarose gel. HBV RNA blotted onto nitrocellulose membrane was measured with P32 labeled ribo-probe. Reduction and shortening of viral RNA indicates on target effect of the tested compound. […] HepG2.2.15 cells were first seeded in 96-well plate (Corning, Cat #: CLS3595) at density of 10,000 cells/well in 100 ul DMEM/F12 medium containing 10% FBS. When cells reached 100% confluence, treatment with compounds of the disclosure was initiated, and cells were cultured in the way as described for HBsAg inhibition study. Four days post drug treatment, 100 ul of CellTiter-Glo reagents (Promega, Cat #G7570) were added into each well and the mixture was incubated at 23° C. for 12 minutes, followed by the reading of luminescent signal in Tecan's Infinite 200 PRO. Compound IC50 on HBsAg and CC50 on cell viability were calculated using Graphpad prism. The IC50 and CC50 are defined as the compound concentration (or conditioned media log dilution) at which HBsAg secretion and cytotoxicity, respectively, are reduced by 50% compared to the no drug control.
(§2) Cellular assays method 2: HepG2.2.15 cells were seeded in duplicate into white, 96-well plates at 1.5×10^4 cells/well. The cells were treated with a 3-fold serial dilution series of the compounds in DMSO. The final DMSO concentration in all wells was 1%, and DMSO was used as no drug control. The HBsAg chemiluminescence immunoassay (CLIA) kit (Autobio Diagnostics Co., Zhengzhou, China) was used to measure the levels of secreted HBV antigens semi-quantitatively. For the detection, 50 μL/well culture supernatant was used and the procedure conducted as directed by manufacturer's instructions. The cytotoxicity was measured using CellTiter-Glo (Promega, Madison, WI, USA, catalogue no. G7571). Dose-response curves were generated and the IC50 and CC50 values were calculated using Graphpad prism. The IC50 and CC50 are defined as the compound concentration (or conditioned media log dilution) at which HBsAg secrection and cytotoxicity, respectively, are reduced by 50% compared to the no drug control.

Series [7] is described as follows: Cellular toxicity (CellTiter-Glo) in HepG2.2.15 cells. It counts as cell-based. The note with it: human. Here is the method:
as §1, §2
A general note: Cellular ATP, detected with luciferase, serves as a proxy for viable cell number.

Molecules are shown by their SMILES.

With `COCCCOc1cc2c(cc1OC)-c1cc(=O)c(C(=O)O)cn1[C@H](C(C)C)C2` [DHQ-1], the Toxicity observed result in series [1] is on record as “acute neurotoxicity liabilities”. Moreover, in series [2], the “Reduction of HBsAg in the circulation” value is 1 log. Besides, in series [3], the “Reduction of WHV and surface protein in the blood” value is “multi-log reductions”. In series [4] (test concentration 1 μM), the “Uptake Ratio (−/+Inhibitor)” value turned out to be 0.38 and the “Uptake Ratio (Transporter(−Inhibitor)/Mock(−Inhibitor))” value was found to be 0.71. In addition, in series [5] (test concentration 1 μM), the “Uptake Ratio (−/+Inhibitor)” value is 0.42 and the “Uptake Ratio (Transporter(−Inhibitor)/Mock(−Inhibitor))” value was 0.56.
On to `C[C@]12CC[C@@H]3c4ccc(O)cc4CC[C@H]3[C@@H]1CC[C@@H]2O[C@@H]1O[C@H](C(=O)O)[C@@H](O)[C@H](O)[C@H]1O` [Estradiol 17-β Glucuronide], for which the results for the “Uptake Ratio (−/+Inhibitor)” value in series [4] (test concentration 10 μM) and in series [5] (test concentration 10 μM) were 81.84 and 86.15, respectively. The results for the “Uptake Ratio (Transporter(−Inhibitor)/Mock(−Inhibitor))” value in series [4] (test concentration 10 μM) and in series [5] (test concentration 10 μM) were 48.70 and 98.86, respectively.
For the molecule `COc1cc2c(cc1OCC(=O)O)C[C@@H](C(C)C)n1cc(C(=O)O)c(=O)cc1-2` [Example 1, (S)-9-(carboxymethoxy)-6-isopropyl-10-methoxy-2-oxo-6,7-dihydro-2H-pyrido [2,1-a]isoquinoline-3-carboxylic acid], the EC50 (as a rule, the concentration needed to bring the measured effect to its halfway point) in series [6] stood at 10000 nM. For the same molecule, the CC50 (commonly the concentration that lowers cell viability or growth by half) in series [7] is > 10000 nM.
For `COc1cc2c(cc1OCCCC(=O)O)C[C@@H](C(C)C)n1cc(C(=O)O)c(=O)cc1-2` [Example 2, (S)-9-(3-carboxypropoxy)-6-isopropyl-10-methoxy-2-oxo-6,7-dihydro-2H-pyrido [2,1-a]isoquinoline-3-carboxylic acid], in that order: 1010 nM and > 10000 nM.
For `COc1cc2c(cc1OCCCCC(=O)O)C[C@@H](C(C)C)n1cc(C(=O)O)c(=O)cc1-2` [Example 3, (S)-9-(4-carboxybutoxy)-6-isopropyl-10-methoxy-2-oxo-6,7-dihydro-2H-pyrido[2,1-a]isoquinoline-3-carboxylic acid], in that order: 380 nM and > 10000 nM.
For `COc1cc2c(cc1OCCCCCC(=O)O)C[C@@H](C(C)C)n1cc(C(=O)O)c(=O)cc1-2` [Example 4, (S)-9-((5-carboxypentyl)oxy)-6-isopropyl-10-methoxy-2-oxo-6,7-dihydro-2H-pyrido[2,1-a]isoquinoline-3-carboxylic acid], in that order: 87 nM and > 10000 nM.
As to `COc1cc2c(cc1OCCCOCC(=O)O)C[C@@H](C(C)C)n1cc(C(=O)O)c(=O)cc1-2` [Example 5, (S)-9-(3-(carboxymethoxy)propoxy)-6-isopropyl-10-methoxy-2-oxo-6,7-dihydro-2H-pyrido[2,1-a]isoquinoline-3-carboxylic acid], in series [6], a half-maximal response (EC50) required 2780 nM. Moreover, the CC50 in series [7] is > 10000 nM.
The like results for `COc1cc2c(cc1OCCCCCCCC(=O)O)C[C@@H](C(C)C)n1cc(C(=O)O)c(=O)cc1-2` [Example 7, (S)-9-((7-carboxyheptyl)oxy)-6-isopropyl-10-methoxy-2-oxo-6,7-dihydro-2H-pyrido[2,1-a]isoquinoline-3-carboxylic acid] were, in that order, 7.6 nM and > 10000 nM.
The like results for `COc1cc2c(cc1OCCCCCCCCC(=O)O)C[C@@H](C(C)C)n1cc(C(=O)O)c(=O)cc1-2` [Example 8, (S)-9-((8-carboxyoctyl)oxy)-6-isopropyl-10-methoxy-2-oxo-6,7-dihydro-2H-pyrido[2,1-a]isoquinoline-3-carboxylic acid] were, in that order, 4.6 nM and > 10000 nM.
